These results are taken from patent US20230242585A1, “IMMUNOMODULATORS” (Bristol-Myers Squibb Company, priority 2020, published 2023).

Starred links: 1 amine or outer side, 2 acyl side, 3 side chain; linkers in the order of their positions; H or OH if unused. Positions of bridges follow the written chain, without caps; N, C: chain ends. Non-standard residues stand in square brackets, D forms with d. Residues, ends and D or L forms follow the SMILES beside them. X30 = O=C([C@H](CCNC[C@H](O)[C@@H](O)[C@H](O[C@H]1O[C@H](CO)[C@@H](O)[C@H](O)[C@H]1O)[C@H](O)CO)N[*:1])[*:2]; X27 = O=C([C@H](CNC[C@H](O)[C@@H](O)[C@H](O[C@@H]1O[C@H](CO)[C@H](O)[C@H](O)[C@H]1O)[C@H](O)CO)N[*:1])[*:2]; X29 = O=C([C@H](CNC[C@H](O)[C@@H](O)[C@H](O[C@H]1O[C@H](CO)[C@@H](O)[C@H](O)[C@H]1O)[C@H](O)CO)N[*:1])[*:2]; X43 = O=C([C@H](CNC[C@@H](O)[C@H](O)[C@@H](O)[C@@H](O)CO)N[*:1])[*:2]; X11 = O=C([C@H](CNC[C@H](O)[C@@H](O)[C@@H](O)[C@H](O)CO)N[*:1])[*:2]; X58 = O=C([C@H](CNC[C@H](O)[C@@H](O)[C@H](O)[C@H](O)CO)N[*:1])[*:2]; X32 = O=C([C@H](CCNC[C@@H](O)[C@H](O)[C@@H](O)CO)N[*:1])[*:2]; X31 = O=C([C@H](CNC[C@@H](O)[C@H](O)[C@@H](O)CO)N[*:1])[*:2]; X68 = O=C([C@H](CCNC[C@@H](O)[C@H](O)[C@H](O)CO)N[*:1])[*:2]; X6 = O=C([C@H](CCNC[C@H](O)[C@@H](O)[C@H](O)CO)N[*:1])[*:2]; X67 = O=C([C@H](CNC[C@@H](O)[C@H](O)[C@H](O)CO)N[*:1])[*:2]; X5 = O=C([C@H](CNC[C@H](O)[C@@H](O)[C@H](O)CO)N[*:1])[*:2]; Trp(1-CH2COOH) = N[C@@H](Cc1cn(CC(=O)O)c2ccccc12)C(=O)O; Hyp = O=C(O)[C@@H]1C[C@@H](O)CN1; NMeNle = CCCC[C@H](NC)C(=O)O; NMeA = CN[C@@H](C)C(=O)O; Dab = NCC[C@H](N)C(=O)O

The target in this assay is T1, PD-1/PD-L1 (Homo sapiens, UniProt Q9NZQ7).
T1 construct: TVMV protease site (linker) (C); made in house; host or cells: HEK293T cells
T1 sequence (Q9NZQ7 18-239): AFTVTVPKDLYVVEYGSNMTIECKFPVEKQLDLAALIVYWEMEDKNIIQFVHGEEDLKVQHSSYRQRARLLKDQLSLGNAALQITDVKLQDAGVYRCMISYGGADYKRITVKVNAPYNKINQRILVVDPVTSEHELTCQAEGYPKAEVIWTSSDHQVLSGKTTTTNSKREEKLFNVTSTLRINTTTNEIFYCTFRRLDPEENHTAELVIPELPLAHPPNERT
The assay is described as follows: PD-1/PD-L1 Homogenous Time-Resolved Fluorescence (HTRF) binding assay. The settings on record: PD-L1-His 10 nM, PD-1-Ig 20 nM. In short, it runs like this: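 Compounds preincubated 15 min with PD-L1-His (residues 18-239, 10 nM) in dPBS with 0.1% BSA, 0.05% Tween-20, then PD-1-Ig (residues 25-167, 20 nM) for 15 min. Eu-cryptate anti-Ig (1 nM) and APC anti-His (20 nM) equilibrated 30 min; 665/620 nm ratio read, IC50 derived.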
On to `CCCC[C@H]1C(=O)N(C)[C@@H](CCCC)C(=O)N[C@@H](CC(C)C)C(=O)N[C@H](C(=O)NCC(N)=O)CSCC(=O)N[C@@H](Cc2ccc(O)cc2)C(=O)N(C)[C@@H](C)C(=O)N[C@@H](CC(N)=O)C(=O)N2CCC[C@H]2C(=O)N[C@@H](CNC[C@H](O)[C@@H](O)[C@H](O[C@H]2O[C@H](CO)[C@@H](O)[C@H](O)[C@H]2O)[C@H](O)CO)C(=O)N[C@@H](CC(C)C)C(=O)N2C[C@H](O)C[C@H]2C(=O)N[C@@H](Cc2c[nH]c3ccccc23)C(=O)N[C@@H](CCNC[C@H](O)[C@@H](O)[C@H](O[C@H]2O[C@H](CO)[C@@H](O)[C@H](O)[C@H]2O)[C@H](O)CO)C(=O)N[C@@H](Cc2cn(CC(=O)O)c3ccccc23)C(=O)N1C` [Example 2010] ({CH2CO}-Y[NMeA]NP[X29]L[Hyp]W[X30][Trp(1-CH2COOH)][NMeNle][NMeNle]LCG-NH2; thioether N-14), for which the IC50 is 2.1 nM. As for `CCCC[C@H]1C(=O)N(C)[C@@H](CCCC)C(=O)N[C@@H](CC(C)C)C(=O)N[C@H](C(=O)NCC(N)=O)CSCC(=O)N[C@@H](Cc2ccc(O)cc2)C(=O)N(C)[C@@H](C)C(=O)N[C@@H](CC(N)=O)C(=O)N2CCC[C@H]2C(=O)N[C@@H](CNC[C@H](O)[C@@H](O)[C@H](O[C@H]2O[C@H](CO)[C@@H](O)[C@H](O)[C@H]2O)[C@H](O)CO)C(=O)N[C@@H](CC(C)C)C(=O)N2C[C@H](O)C[C@H]2C(=O)N[C@@H](Cc2c[nH]c3ccccc23)C(=O)N[C@@H](CCN)C(=O)N[C@@H](Cc2cn(CC(=O)O)c3ccccc23)C(=O)N1C` [Example 2011] ({CH2CO}-Y[NMeA]NP[X29]L[Hyp]W[Dab][Trp(1-CH2COOH)][NMeNle][NMeNle]LCG-NH2; thioether N-14), the figure is 8.8 nM; as for `CCCC[C@H]1C(=O)N(C)[C@@H](CCCC)C(=O)N[C@@H](CC(C)C)C(=O)N[C@H](C(=O)NCC(N)=O)CSCC(=O)N[C@@H](Cc2ccc(O)cc2)C(=O)N(C)[C@@H](C)C(=O)N[C@@H](CC(N)=O)C(=O)N2CCC[C@H]2C(=O)N[C@@H](CNC[C@@H](O)[C@H](O)[C@H](O)CO)C(=O)N[C@@H](CC(C)C)C(=O)N2C[C@H](O)C[C@H]2C(=O)N[C@@H](Cc2c[nH]c3ccccc23)C(=O)N[C@@H](CCNC[C@@H](O)[C@H](O)[C@H](O)CO)C(=O)N[C@@H](Cc2cn(CC(=O)O)c3ccccc23)C(=O)N1C` [Example 2012] ({CH2CO}-Y[NMeA]NP[X67]L[Hyp]W[X68][Trp(1-CH2COOH)][NMeNle][NMeNle]LCG-NH2; thioether N-14), 0.7 nM. For `CCCC[C@H]1C(=O)N(C)[C@@H](CCCC)C(=O)N[C@@H](CC(C)C)C(=O)N[C@H](C(=O)NCC(N)=O)CSCC(=O)N[C@@H](Cc2ccc(O)cc2)C(=O)N(C)[C@@H](C)C(=O)N[C@@H](CC(N)=O)C(=O)N2CCC[C@H]2C(=O)N[C@@H](CNC[C@H](O)[C@@H](O)[C@H](O[C@@H]2O[C@H](CO)[C@H](O)[C@H](O)[C@H]2O)[C@H](O)CO)C(=O)N[C@@H](CC(C)C)C(=O)N2C[C@H](O)C[C@H]2C(=O)N[C@@H](Cc2c[nH]c3ccccc23)C(=O)N[C@@H](CCN)C(=O)N[C@@H](Cc2cn(CC(=O)O)c3ccccc23)C(=O)N1C` [Example 2013] ({CH2CO}-Y[NMeA]NP[X27]L[Hyp]W[Dab][Trp(1-CH2COOH)][NMeNle][NMeNle]LCG-NH2; thioether N-14) the value was 9.7 nM; for `CCCC[C@H]1C(=O)N(C)[C@@H](CCCC)C(=O)N[C@@H](CC(C)C)C(=O)N[C@H](C(=O)NCC(N)=O)CSCC(=O)N[C@@H](Cc2ccc(O)cc2)C(=O)N(C)[C@@H](C)C(=O)N[C@@H](CC(N)=O)C(=O)N2CCC[C@H]2C(=O)N[C@@H](CNC[C@H](O)[C@@H](O)[C@H](O)CO)C(=O)N[C@@H](CC(C)C)C(=O)N2C[C@H](O)C[C@H]2C(=O)N[C@@H](Cc2c[nH]c3ccccc23)C(=O)N[C@@H](CCNC[C@H](O)[C@@H](O)[C@H](O)CO)C(=O)N[C@@H](Cc2cn(CC(=O)O)c3ccccc23)C(=O)N1C` [Example 2014] ({CH2CO}-Y[NMeA]NP[X5]L[Hyp]W[X6][Trp(1-CH2COOH)][NMeNle][NMeNle]LCG-NH2; thioether N-14), 2.5 nM. For `CCCC[C@H]1C(=O)N(C)[C@@H](CCCC)C(=O)N[C@@H](CC(C)C)C(=O)N[C@H](C(=O)NCC(N)=O)CSCC(=O)N[C@@H](Cc2ccc(O)cc2)C(=O)N(C)[C@@H](C)C(=O)N[C@@H](CC(N)=O)C(=O)N2CCC[C@H]2C(=O)N[C@@H](CNC[C@H](O)[C@@H](O)[C@H](O)[C@H](O)CO)C(=O)N[C@@H](CC(C)C)C(=O)N2C[C@H](O)C[C@H]2C(=O)N[C@@H](Cc2c[nH]c3ccccc23)C(=O)N[C@@H](CCN)C(=O)N[C@@H](Cc2cn(CC(=O)O)c3ccccc23)C(=O)N1C` [Example 2015] ({CH2CO}-Y[NMeA]NP[X58]L[Hyp]W[Dab][Trp(1-CH2COOH)][NMeNle][NMeNle]LCG-NH2; thioether N-14) the value was 1.8 nM. The molecule `CCCC[C@H]1C(=O)N(C)[C@@H](CCCC)C(=O)N[C@@H](CC(C)C)C(=O)N[C@H](C(=O)NCC(N)=O)CSCC(=O)N[C@@H](Cc2ccc(O)cc2)C(=O)N(C)[C@@H](C)C(=O)N[C@@H](CC(N)=O)C(=O)N2CCC[C@H]2C(=O)N[C@@H](CNC[C@@H](O)[C@H](O)[C@@H](O)[C@@H](O)CO)C(=O)N[C@@H](CC(C)C)C(=O)N2C[C@H](O)C[C@H]2C(=O)N[C@@H](Cc2c[nH]c3ccccc23)C(=O)N[C@@H](CCN)C(=O)N[C@@H](Cc2cn(CC(=O)O)c3ccccc23)C(=O)N1C` [Example 2016] ({CH2CO}-Y[NMeA]NP[X43]L[Hyp]W[Dab][Trp(1-CH2COOH)][NMeNle][NMeNle]LCG-NH2; thioether N-14) came in with an IC50 of 2 nM. For `CCCC[C@H]1C(=O)N(C)[C@@H](CCCC)C(=O)N[C@@H](CC(C)C)C(=O)N[C@H](C(=O)NCC(N)=O)CSCC(=O)N[C@@H](Cc2ccc(O)cc2)C(=O)N(C)[C@@H](C)C(=O)N[C@@H](CC(N)=O)C(=O)N2CCC[C@H]2C(=O)N[C@@H](CNC[C@H](O)[C@@H](O)[C@@H](O)[C@H](O)CO)C(=O)N[C@@H](CC(C)C)C(=O)N2C[C@H](O)C[C@H]2C(=O)N[C@@H](Cc2c[nH]c3ccccc23)C(=O)N[C@@H](CCN)C(=O)N[C@@H](Cc2cn(CC(=O)O)c3ccccc23)C(=O)N1C` [Example 2017] ({CH2CO}-Y[NMeA]NP[X11]L[Hyp]W[Dab][Trp(1-CH2COOH)][NMeNle][NMeNle]LCG-NH2; thioether N-14) the value was 7.2 nM; for `CCCC[C@H]1C(=O)N(C)[C@@H](CCCC)C(=O)N[C@@H](CC(C)C)C(=O)N[C@H](C(=O)NCC(N)=O)CSCC(=O)N[C@@H](Cc2ccc(O)cc2)C(=O)N(C)[C@@H](C)C(=O)N[C@@H](CC(N)=O)C(=O)N2CCC[C@H]2C(=O)N[C@@H](CNC[C@@H](O)[C@H](O)[C@@H](O)CO)C(=O)N[C@@H](CC(C)C)C(=O)N2C[C@H](O)C[C@H]2C(=O)N[C@@H](Cc2c[nH]c3ccccc23)C(=O)N[C@@H](CCNC[C@@H](O)[C@H](O)[C@@H](O)CO)C(=O)N[C@@H](Cc2cn(CC(=O)O)c3ccccc23)C(=O)N1C` [Example 2018] ({CH2CO}-Y[NMeA]NP[X31]L[Hyp]W[X32][Trp(1-CH2COOH)][NMeNle][NMeNle]LCG-NH2; thioether N-14), 2.4 nM.
